From US5106868A, “Epoxycyclohexenone amides with antibacterial activity” (Kyowa Hakko Kogyo Kabushiki Kaisha, priority 1990, dated 1992)
≈ marks a conversion by molar mass, not a printed value.

What was measured:
[1] = tested on: Salmonella typhi ATCC 9992; assay: Anti-bacterial activity, minimum inhibitory concentration by agar dilution method; assay type: cell-based; conditions: Salmonella enterica, read-out: Minimum inhibitory concentration
Protocol: (§1) Minimum inhibitory concentration (μg/ml) was measured by the agar dilution method using a medium (pH=7.0) which was prepared by dissolving Bactotryptone medium (3 g; commercial product of Difco, U.S.A.), meat extract (3 g), yeast extract (1 g), glucose (1 g) and agar (16 g) in water (1 l).

[2] = tested on: Pseudomonas aeruginosa Bin H No. 1; assay: as above; assay type: cell-based; conditions: pH=7.0
Protocol: as §1

[3] = tested on: Klebsiella pneumonia ATCC 10031; assay: as above; assay type: cell-based; conditions: Klebsiella pneumoniae, ATCC10031, pH=7.0
Protocol: as §1

[4] = tested on: Enterococcus faecium ATCC 10541; assay: as above; assay type: cell-based; conditions: ATCC10541, pH=7.0
Protocol: as §1

[5] = tested on: Staphylococcus aureus ATCC 6538P; assay: as above; assay type: cell-based; conditions: ATCC6538P, pH=7.0
Protocol: as §1

[6] = tested on: Candida albicans ATCC 10231; assay: as above; assay type: cell-based; conditions: ATCC10231, pH=7.0
Protocol: as §1

Escherichia coli ATCC 26 = assay: as above; assay type: cell-based; conditions: ATCC26, pH=7.0
Protocol: as §1

[7] = tested on: Shigella sonnei ATCC 9290; assay: as above; assay type: cell-based; conditions: ATCC9290, pH=7.0
Protocol: as §1

[8] = tested on: Bacillus subtilis No. 10707; assay: as above; assay type: cell-based; conditions: pH=7.0
Protocol: as §1

MCF7 cells (ATCC HTB22) = assay: Anti-tumour activity, MCF7 cell growth inhibition (neutral red); assay type: cell-based; conditions: Homo sapiens, 72 hours, 37° C., absorptivity at 550 nm
Protocol: MCF7 cells (ATCC HTB22) was add to RPMI-1640 medium (commercial product of Gibco, U.S.A.) containing 10 % fetal calf serum, insulin (10 μg/ml) and estradiol (10^-8 M) (hereinafter referred to as medium A) to prepare a cell suspension containing 4.5×10^4 cell/ml.
On each occasion, 0.1 ml of the suspension was poured into each well of a 96 well microtitre plate and incubated at a temperature of 37° C. for 20 hours in a carbon dioxide incubator. Then a test compound (each 0.05 ml) was added to each well, followed by incubation similarly for 72 hours. After removal of the supernatant, another medium (0.1 ml) containing medium A and 0.02% neutral red was added to the material for incubating similarly for one hour to dye the cells. The supernatant was removed, and the residue was washed once with physiological Saline. Then the dyestuff was removed by using an aqueous solution of ethanol (30%) containing 0.001N hydrochloric acid.
The absorptivity at 550 nm of the material was measured by the use of a microplate reader. The absorptivity of the treated cells was compared with the absorptivity of untreated cells to measure the IC50 value viz. the concentration of the test compound required to inhibit the growth of the cells by 50%.

[9] = Solubility in various solvents; assay type: physicochemical; conditions: for Solubility in various solvents (soluble): organic solvents; for Solubility in various solvents (insoluble): water, n-hexane where named

Structure (SMILES) | MIC [1] [µg/mL] | MIC [2] [µg/mL] | MIC [3] [µg/mL] | MIC [4] [µg/mL] | MIC [5] [µg/mL] | MIC [6] [µg/mL] | MIC (Escherichia coli ATCC 26) [µg/mL] | MIC [7] [µg/mL] | MIC [8] [µg/mL] | IC50 (MCF7 cells (ATCC HTB22)) [µg/mL] | Solubility in various solvents (soluble) [9] | Solubility in various solvents (insoluble) [9]
CCCCC(C)/C=C(C)/C=C(\C)C(=O)NC1=CC(O)(/C=C/C=C/C=C/C(=O)NC2=C(O)CCC2=O)C2OC2C1=O (stereo not shown) [Manumycin, reference compound] | > 100 | > 100 | > 100 | 2.6 (≈ 4.72 µM) | 1.3 (≈ 2.36 µM) | 21 (≈ 38.1 µM) | > 100 | > 100 | 0.3 (≈ 0.545 µM) | 8.3 (≈ 15.1 µM) | – | –
CCCCC(C)/C=C(\C)C(=O)NC1=CC(=O)C2OC2C1=O (stereo not shown) [UCF1-AX] | 21 (≈ 72.1 µM) | 83 (≈ 285 µM) | 21 (≈ 72.1 µM) | 10 (≈ 34.3 µM) | 10 (≈ 34.3 µM) | 10 (≈ 34.3 µM) | 21 (≈ 72.1 µM) | 10 (≈ 34.3 µM) | 1.3 (≈ 4.46 µM) | 18.9 (≈ 64.9 µM) | Soluble in chloroform, methanol and diethyl ether | Insoluble in water
CCCCC(C)/C=C(\C)C(=O)NC1=CC(O)(/C=C/C=C/C=C/C(=O)NC2=C(O)CCC2=O)C2OC2C1=O (stereo not shown) [UCF1-A] | > 100 | > 100 | > 100 | 10 (≈ 19.6 µM) | 2.6 (≈ 5.09 µM) | > 100 | > 100 | > 100 | 10 (≈ 19.6 µM) | 12.5 (≈ 24.5 µM) | Soluble in chloroform, dimethylsulfoxide, ethyl acetate, methanol and acetone | Insoluble in n-hexane and water
CCCCC(C)/C=C(C)/C=C/C(=O)NC1=CC(=O)C2OC2C1=O (stereo not shown) [UCF1-BX] | > 100 | 83 (≈ 262 µM) | > 100 | 0.65 (≈ 2.05 µM) | 8.3 (≈ 26.2 µM) | 42 (≈ 132 µM) | > 100 | > 100 | 0.16 (≈ 0.504 µM) | 7.5 (≈ 23.6 µM) | Soluble in chloroform, methanol and diethyl ether | Insoluble in water
CCCCC(C)/C=C(C)/C=C/C(=O)NC1=CC(O)(/C=C/C=C/C=C/C(=O)NC2=C(O)CCC2=O)C2OC2C1=O (stereo not shown) [UCF1-B] | > 100 | > 100 | > 100 | 10 (≈ 18.6 µM) | 2.6 (≈ 4.85 µM) | > 100 | > 100 | > 100 | 1.3 (≈ 2.42 µM) | 7.3 (≈ 13.6 µM) | Soluble in chloroform, dimethylsulfoxide, ethyl acetate, methanol and acetone | Insoluble in n-hexane and water
